How the values were obtained:
[1] = test system: Mus musculus; experiment: Net log cell kill was determined after injecting 1.56 mg/kg intraperitoneally in CD2F1 mice; assay type: functional; details: route intraperitoneal
[2] = test system: Mus musculus; experiment: Net log cell kill was determined after injecting 12.5 mg/kg intraperitoneally in CD2F1 mice; assay type: functional; details: route intraperitoneal
[3] = test system: Mus musculus; experiment: Net log cell kill was determined after injecting 3.12 mg/kg intraperitoneally in CD2F1 mice; assay type: functional; details: route intraperitoneal
[4] = test system: Mus musculus; experiment: Body weight change of test animals to that of control was determined after injection at 6.25 mg/kg intraperitoneally in CD2F1 mice; assay type: functional; details: route intraperitoneal
[5] = test system: Mus musculus; experiment: Net log cell kill was determined after injecting 6.25 mg/kg intraperitoneally in CD2F1 mice; assay type: functional; details: route intraperitoneal
[6] = test system: Mus musculus; experiment: Body weight change of test animals to that of control was determined after injection at 1.56 mg/kg intraperitoneally in CD2F1 mice; assay type: functional; details: route intraperitoneal
[7] = test system: Mus musculus; experiment: Body weight change of test animals to that of control was determined after injection at 25 mg/kg intraperitoneally in CD2F1 mice; assay type: functional; details: route intraperitoneal
[8] = test system: Mus musculus; experiment: Body weight change of test animals to that of control was determined after injection at 3.12 mg/kg intraperitoneally in CD2F1 mice; assay type: functional; details: route intraperitoneal
[9] = test system: Mus musculus; experiment: Body weight change of test animals to that of control was determined after injection at 50 mg/kg intraperitoneally in CD2F1 mice; assay type: functional; details: route intraperitoneal
[10] = test system: Mus musculus; experiment: Toxicity day survivors was determined by the ratio of animals survived to that of test animals at 100 mg/kg intraperitoneally in CD2F1 mice; 0/6; assay type: organism-based; set-up: dose 100 mg/kg, route intraperitoneal; details: in vivo, ip
[11] = test system: Mus musculus; experiment: Toxicity day survivors was determined by the ratio of animals survived to that of test animals at 12.5 mg/kg intraperitoneally in CD2F1 mice; 6/6; assay type: organism-based; set-up: dose 12.5 mg/kg, route intraperitoneal; details: in vivo, ip
[12] = test system: Mus musculus; experiment: Toxicity day survivors was determined by the ratio of animals survived to that of test animals at 25 mg/kg intraperitoneally in CD2F1 mice; 4/6; assay type: organism-based; set-up: dose 25 mg/kg, route intraperitoneal; details: in vivo, ip
[13] = test system: Mus musculus; experiment: Toxicity day survivors was determined by the ratio of animals survived to that of test animals at 3.12 mg/kg intraperitoneally in CD2F1 mice; 6/6; assay type: organism-based; set-up: dose 3.12 mg/kg, route intraperitoneal; details: in vivo, ip
[14] = test system: Mus musculus; experiment: Toxicity day survivors was determined by the ratio of animals survived to that of test animals at 50 mg/kg intraperitoneally in CD2F1 mice; 3/6; assay type: organism-based; set-up: dose 50 mg/kg, route intraperitoneal; details: in vivo, ip
[15] = test system: Mus musculus; experiment: Toxicity day survivors was determined by the ratio of animals survived to that of test animals at 6.25 mg/kg intraperitoneally in CD2F1 mice; 6/6; assay type: organism-based; set-up: dose 6.25 mg/kg, route intraperitoneal; details: in vivo, ip
[16] = test system: Mus musculus; experiment: Toxicity day survivors was determined by the ratio of animals survived to that of test animals at 1.56 mg/kg intraperitoneally in CD2F1 mice; 6/6; assay type: organism-based; set-up: dose 1.56 mg/kg, route intraperitoneal; details: in vivo, ip
[17] = test system: Mus musculus; experiment: Ratio of treated to that of untreated tumor-bearing control animals at 6.25 mg/kg intraperitoneally in CD2F1 mice was determined; assay type: functional; details: route intraperitoneal
[18] = test system: Mus musculus; experiment: Ratio of treated to that of untreated tumor-bearing control animals at 12.5 mg/kg intraperitoneally in CD2F1 mice was determined; assay type: functional; details: route intraperitoneal
[19] = test system: Mus musculus; experiment: Ratio of treated to that of untreated tumor-bearing control animals at 1.56 mg/kg intraperitoneally in CD2F1 mice was determined; assay type: functional; details: route intraperitoneal
[20] = test system: Mus musculus; experiment: Body weight change of test animals to that of control was determined after injection at 12.5 mg/kg intraperitoneally in CD2F1 mice; assay type: functional; details: route intraperitoneal
[21] = test system: Mus musculus; experiment: Ratio of treated to that of untreated tumor-bearing control animals at 3.12 mg/kg intraperitoneally in CD2F1 mice was determined; assay type: functional; details: route intraperitoneal
[22] = test system: Mus musculus; experiment: Net log cell kill was determined after injecting 25 mg/kg intraperitoneally in CD2F1 mice; assay type: functional; details: route intraperitoneal
[23] = test system: Mus musculus; experiment: Net log cell kill was determined after injecting 50 mg/kg intraperitoneally in CD2F1 mice; assay type: functional; details: route intraperitoneal
[24] = test system: Mus musculus; experiment: Body weight change of test animals to that of control was determined after injection at 100 mg/kg intraperitoneally in CD2F1 mice; assay type: functional; details: route intraperitoneal
[25] = test system: Mus musculus; experiment: Toxicity day survivors was determined by the ratio of animals survived to that of test animals at 100 mg/kg intraperitoneally in CD2F1 mice; 2/6; assay type: organism-based; set-up: dose 100 mg/kg, route intraperitoneal; details: in vivo, ip
[26] = test system: Mus musculus; experiment: Toxicity day survivors was determined by the ratio of animals survived to that of test animals at 25 mg/kg intraperitoneally in CD2F1 mice; 6/6; assay type: organism-based; set-up: dose 25 mg/kg, route intraperitoneal; details: in vivo, ip
[27] = test system: Mus musculus; experiment: Toxicity day survivors was determined by the ratio of animals survived to that of test animals at 50 mg/kg intraperitoneally in CD2F1 mice; 6/6; assay type: organism-based; set-up: dose 50 mg/kg, route intraperitoneal; details: in vivo, ip
[28] = test system: Mus musculus; experiment: Ratio of treated to that of untreated tumor-bearing control animals at 50 mg/kg intraperitoneally in CD2F1 mice was determined; assay type: functional; details: route intraperitoneal
[29] = test system: Mus musculus; experiment: Ratio of treated to that of untreated tumor-bearing control animals at 25 mg/kg intraperitoneally in CD2F1 mice was determined; assay type: functional; details: route intraperitoneal

Compound | KE [2] | T-C [4] [g] | KE [5] | T-C [7] [g] | T-C [9] [g] | TDS [11] | TDS [15] | T/C [17] [%] | T/C [18] [%] | T-C [20] [g] | further results
CC(C)NC(=O)OCc1cn2c(c1COC(=O)NC(C)C)-c1ccccc1CC2 | 3.84 | -0.8 | 1.6 | -4.2 | -3.5 | 6 | 6 | 157 | 188 | -3.1 | KE [1]: -0.38; KE [3]: 0; T-C [6]: -0.3 g; T-C [8]: -0.5 g; TDS [10]: 0; TDS [12]: 4; TDS [13]: 6; TDS [14]: 3; TDS [16]: 6; T/C [19]: 130%; T/C [21]: 136%
Cc1c(COC(=O)NC(C)C)c(COC(=O)NC(C)C)c2n1CCc1ccccc1-2 | 1.6 | -0.9 | 1.28 | -4.2 | -4 | 6 | 6 | 153 | 157 | -2.6 | KE [22]: 2.24; KE [23]: 2.82; T-C [24]: -3.8 g; TDS [25]: 2; TDS [26]: 6; TDS [27]: 6; T/C [28]: 174%; T/C [29]: 166%
